Laboratory results: US20040157793A1, “Modified nucleosides as antiviral agents” (priority 2002, published 2004)
Where two headings read alike, the source gives them in different places.

Assays:
[1] = test system: HepG2 cells (mitochondrial COXII DNA); settings: for Average ΔCt ± s.d. MitCoxII / Average ΔCt ± s.d. rDNA / Average ΔΔCt ± s.d. MitCOXII-rDNA / Fold difference in COXII DNA levels normalized for rDNA (range) relative to control: HepG2, 14-day treatment; for effect on mitochondrial DNA levels (in words): HepG2, up to 100 μM, 14 days
[2] = test system: HBV (3TC-resistant virus: rtV204) in HepAD79 cells; experiment: microbe, parasite or virus in culture; assay type: cell-based; settings: for HepAD79 log10 inhibition at 10 μM: HBV DNA in supernatant; for FI EC90 AD79/EC90 AD38: fold increase, EC90 HepAD79 over EC90 HepAD38
Experimental: (§1) HepAD38 and HepAD79 cells were seeded at 5×10^4 cells/well in a 96-well plate in seeding medium (DMEM/F12+10% FBS, 50 μg/ml penicillin, 50 μg/ml streptomycin, 100 μg/ml kanamycin, 400 μg/ml G418, and 0.3 μg/ml tetracycline) and incubated for 2 days at 37° C. in a 5% CO2, humidified atmosphere. The seeding media was removed, and cells were washed 3 times with PBS. Cells were then incubated with 200 μL assay medium (DMEM/F12+10% FBS+P/S/K) containing either (i) no compound, (ii) test compound, or (iii) control drugs at 10 μM. After an additional 5-day (HepAD38) or 13-day incubation (HepAD79, with renewal of the culture media at day 7), the cell supernatant was collected and stored at −70° C. until HBV DNA was quantified.
(§2) HBV DNA was extracted from supernatant using QiaAmp DNA blood Mini kit (Qiagen) and nucleic acids eluted in 200 μl Viral DNA was detected by quantitative PCR (Q-PCR). The TaqMan probe and primers were designed using the Primer Express software (Applied Biosystems) and cover highly conserved sequences complementary to the DNA sequences present in HBsAg. A total of 5 μl DNA was amplified using reagents and conditions as described by the manufacturer (Applied Biosystems).
Subsequently, the time course of viral induction in HepAD79 cells over a 13-day incubation period was investigated.
Therefore, the DNA extracted from the cell supernatant was also amplified by Q-PCR for the presence of cellular DNA (the rRNA gene).

HepG2 cells [3] = experiment: Cell growth of HepG2 cells during 14-day treatment; assay type: cell-based, human; settings: HepG2, up to 100 μM, 14 days
Experimental: (§3) In addition, these compounds were also tested in the HepG2 cell line (14-day treatment, 100 μM) for their ability to reduce mitochondrial DNA levels (using a newly designed normalized Q-PCR protocol as described in Stuyver, L. J., et al. 2002, Antimicrob. Agents Chemother., 46:3854-3860) or lactic acid production.

[4] = test system: HBV (wild-type virus: rtM204) in HepAD38 cells; experiment: Suppression of HBV production in HepAD38 cells, viral DNA in supernatant by Q-PCR; assay type: cell-based; settings: for HepAD38 log10 inhibition at 10 μM: HBV DNA in supernatant; for EC90: read-out: HepAD38 EC90
Excerpt: The HepAD38 (wild-type virus: rtM204) and HepAD79 (3TC-resistant virus: rtV204) (Stuyver L. J. et al. 2001, Hepatol., 33:751-757) cell lines replicate HBV under conditions that can be regulated with tetracycline (King R. W. et al. 2000, Methods in Molecular Medicine, Vol 24: Antiviral Methods and Protocols, 43-50 (eds: D. Kinchington & R. F. Schinazi), Humana Press Inc, Totowa, N.J.); Ladner, et al. 1997, Antimicrob. Agents Chemother., 41:1715-1720; Ladner S. K., et al. 1998a. Antivir. Chem. Chemother., 9:65-72; Ladner S. K., et al. 1998b. Antimicrob. Agents Chemother., 42:2128-31). In the presence of this drug, the cell supernatant is virtually free of viral DNA, but upon the removal of tetracycline from the culture medium, these cells secrete virus-like particle into the supernatant.
as §1
as §2, with “Biosystems). […]” for “Biosystems).”

HepG2 cells [5] = experiment: Lactic acid production in HepG2 cells; assay type: cell-based, human; settings: HepG2, up to 100 μM, 14 days
Experimental: as §3

[6] = HepAD79 cells, 13-day incubation
[7] = HepAD79 cells, 13-day incubation, read-out: HepAD79 EC90
[8] = HepAD38 cells, 5-day incubation
[9] = HepAD38 cells, 5-day incubation, concentration reducing viral load by 90%, unit printed in text only
[10] = Hepatitis B virus, 312 h, read-out: HepAD79 EC90, HepAD79 cells, 13-day incubation

Row | Compound | Average ΔCt ± s.d. MitCoxII ([1]; 1 μM) | Average ΔCt ± s.d. rDNA ([1]; 1 μM) | Average ΔΔCt ± s.d. MitCOXII-rDNA ([1]; 1 μM) | Fold difference in COXII DNA levels normalized for rDNA (range) relative to control ([1]; 1 μM) | Average ΔCt ± s.d. MitCoxII ([1]; 10 μM) | Average ΔCt ± s.d. rDNA ([1]; 10 μM) | Average ΔΔCt ± s.d. MitCOXII-rDNA ([1]; 10 μM) | Fold difference in COXII DNA levels normalized for rDNA (range) relative to control ([1]; 10 μM) | Average ΔCt ± s.d. MitCoxII ([1]; 100 μM) | Average ΔCt ± s.d. rDNA ([1]; 100 μM) | Average ΔΔCt ± s.d. MitCOXII-rDNA ([1]; 100 μM) | Fold difference in COXII DNA levels normalized for rDNA (range) relative to control ([1]; 100 μM) | effect on mitochondrial DNA levels (in words) [1] | HepAD79 log10 inhibition at 10 μM [2, 6] [log10] | EC90 [2, 7] [nM] | FI EC90 AD79/EC90 AD38 [2] | effect on cell growth (in words) (HepG2 cells [3]) | HepAD38 log10 inhibition at 10 μM [4, 8] [log10] | EC90 [4, 9] [nM] | total lactic acid production (in words) (HepG2 cells [5]) | further results
1 | Nc1ccn([C@@H]2C=C(F)[C@H](CO)O2)c(=O)n1 [L-3′F-D4C, β-L-3′-fluoro-2′,3′--didehydro-2′, 3′--dideoxycytadine] | 0.13 ± 0.16 | 0.08 ± 0.25 | 0.05 ± 0.26 | 0.96 (1.16-0.80) | 0.39 ± 0.15 | −0.11 ± 0.38 | 0.49 ± 0.51 | 0.71 (1.02-0.50) | 0.20 ± 0.20 | −0.28 ± 0.14 | 0.48 ± 0.13 | 0.72 (0.79-0.65) | no reductions in mitochondrial DNA levels | 1.65 ± 0.24 | 2300 | 10.5 | did not show any reduction in cell growth | 2.68 ± 0.44 | 220 ± 150 | no increase in total lactic acid production | EC90 ([4]; HepAD38 cells, 5-day incubation, concentration reducing viral load by 90%, unit printed in text only, listed as L-3F-D4C): 250 nM
2 | Nc1ccn([C@H]2O[C@@H](CO)C=C2F)c(=O)n1 [L-2′F-D4C] | – | – | – | – | −0.36 ± 0.02 | −0.06 ± 0.27 | −0.30 ± 0.28 | 1.23 (1.02-1.50) | 0.33 ± 0.21 | 0.53 ± 0.60 | −0.20 ± 0.40 | 1.15 (0.87-1.52) | – | 0.33 | > 10000 | – | – | 1.77 ± 0.13 | 740 | – | activity against the mutant virus (in words) ([2]; rtV204 mutant virus): completely inactive; inhibition of wild type HBV (in words) ([4]; wild type HBV): potent inhibitors
3 | Nc1nc(=O)n([C@@H]2C=C(F)[C@H](CO)O2)cc1F [L-3′F-D4FC, β-L-3′-fluoro-2′,3′-didehydro-2′,3′-dideoxy-5-fluorocytidine] | 0.00 ± 0.13 | −0.46 ± 0.06 | 0.35 ± 0.01 | 0.78 (0.79-0.78) | 0.23 ± 0.13 | −0.10 ± 0.06 | 0.33 ± 0.10 | 0.80 (0.85-0.74) | −0.52 ± 0.28 | −0.94 ± 0.16 | 0.42 ± 0.13 | 0.75 (0.82-0.68) | no reductions in mitochondrial DNA levels | 1.56 ± 0.40 | 3100 | 14.1 | did not show any reduction in cell growth | 2.8 ± 0.09 | 220 ± 140 | no increase in total lactic acid production | EC90 ([4]; HepAD38 cells, 5-day incubation, concentration reducing viral load by 90%, unit printed in text only, listed as L-3F-D4FC): 250 nM
4 | Nc1ncnc2c1ncn2CCOCP(=O)(O)O [Adefovir] | – | – | – | – | – | – | – | – | – | – | – | – | – | 0.91 ± 0.11 | – | – | – | 0.72 ± 0.12 | – | – | EC90 [2, 10]: > 10000 nM; EC90 ([2]; read-out: HepAD79 EC90, HepAD79 cells, 13-day incubation): ~10000 nM; EC90 ([4]; Hepatitis B virus, HePAD38, 120 h): > 10000 nM
5 | Nc1ccn([C@@H]2CS[C@H](CO)O2)c(=O)n1 [3TC, (−)-enantiomer of 2-hydroxymethyl-5-(cytosin-1-yl)-1,3-oxathiolane] | – | – | – | – | – | – | – | – | – | – | – | – | – | 0.67 ± 0.03 | – | – | – | 1.97 ± 0.28 | – | – | EC90 [2, 10]: > 10000 nM; EC90 ([4]; Hepatitis B virus, 120 h, HepAD38 cells, 5-day incubation, concentration reducing viral load by 90%): 50 nM
